Test: Solvolytic stability of compound was measured relative to p-hydroxyphenethyl bromide
Format: functional, Rattus norvegicus

Oc1ccc(CCBr)cc1
1/krel: 1

— ChEMBL document CHEMBL1121966, “(2R*,3S*)-1-[125I]Iodo-2,3-bis(4-hydroxyphenyl)pentane ([125I]iodonorhexestrol) and (2R*,3S*)-1-[77Br]Bromo-2,3-bis(4-hydroxyphenyl)pentane ([77Br]bromonorhexestrol), two gamma-emitting estrogens that show receptor-mediated uptake by target tissues in vivo” (1982)
